Measurements taken from patent publication US12516039B2, “N-linked isoquinoline amides as LRRK2 inhibitors, pharmaceutical compositions, and uses thereof” (Merck Sharp & Dohme LLC, priority 2020, dated 2026).

Target: T1, GST-tagged truncated human mutant G2019S LRRK2 (Homo sapiens, UniProt Q5S007, G2019S)
T1 construct: GST-tagged truncated human mutant G2019S LRRK2; purchased Life Technologies Corporation (Carlsbad, CA)
Test: LRRK2 G2019S Km ATP LanthaScreen assay
Format: biochemical
Conditions: 134 μM ATP (Km ATP), LRRKtide substrate, mean of several tests, read-out: LRRK2 pIC50 (converted)
Method in brief: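 IC50 values are means of repeat runs, fitted with a 4-parameter logistic to the 520/495 nm TR-FRET ratio from a Tb-labeled anti-phospho-LRRKtide antibody added with EDTA. Reactions ran 90 min at room temperature at Km ATP (134 μM) with fluorescein-LRRKtide, after 15-min compound preincubation with truncated GST-tagged G2019S LRRK2.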

T1 sequence (Q5S007 970-2527 G2019S limits assumed): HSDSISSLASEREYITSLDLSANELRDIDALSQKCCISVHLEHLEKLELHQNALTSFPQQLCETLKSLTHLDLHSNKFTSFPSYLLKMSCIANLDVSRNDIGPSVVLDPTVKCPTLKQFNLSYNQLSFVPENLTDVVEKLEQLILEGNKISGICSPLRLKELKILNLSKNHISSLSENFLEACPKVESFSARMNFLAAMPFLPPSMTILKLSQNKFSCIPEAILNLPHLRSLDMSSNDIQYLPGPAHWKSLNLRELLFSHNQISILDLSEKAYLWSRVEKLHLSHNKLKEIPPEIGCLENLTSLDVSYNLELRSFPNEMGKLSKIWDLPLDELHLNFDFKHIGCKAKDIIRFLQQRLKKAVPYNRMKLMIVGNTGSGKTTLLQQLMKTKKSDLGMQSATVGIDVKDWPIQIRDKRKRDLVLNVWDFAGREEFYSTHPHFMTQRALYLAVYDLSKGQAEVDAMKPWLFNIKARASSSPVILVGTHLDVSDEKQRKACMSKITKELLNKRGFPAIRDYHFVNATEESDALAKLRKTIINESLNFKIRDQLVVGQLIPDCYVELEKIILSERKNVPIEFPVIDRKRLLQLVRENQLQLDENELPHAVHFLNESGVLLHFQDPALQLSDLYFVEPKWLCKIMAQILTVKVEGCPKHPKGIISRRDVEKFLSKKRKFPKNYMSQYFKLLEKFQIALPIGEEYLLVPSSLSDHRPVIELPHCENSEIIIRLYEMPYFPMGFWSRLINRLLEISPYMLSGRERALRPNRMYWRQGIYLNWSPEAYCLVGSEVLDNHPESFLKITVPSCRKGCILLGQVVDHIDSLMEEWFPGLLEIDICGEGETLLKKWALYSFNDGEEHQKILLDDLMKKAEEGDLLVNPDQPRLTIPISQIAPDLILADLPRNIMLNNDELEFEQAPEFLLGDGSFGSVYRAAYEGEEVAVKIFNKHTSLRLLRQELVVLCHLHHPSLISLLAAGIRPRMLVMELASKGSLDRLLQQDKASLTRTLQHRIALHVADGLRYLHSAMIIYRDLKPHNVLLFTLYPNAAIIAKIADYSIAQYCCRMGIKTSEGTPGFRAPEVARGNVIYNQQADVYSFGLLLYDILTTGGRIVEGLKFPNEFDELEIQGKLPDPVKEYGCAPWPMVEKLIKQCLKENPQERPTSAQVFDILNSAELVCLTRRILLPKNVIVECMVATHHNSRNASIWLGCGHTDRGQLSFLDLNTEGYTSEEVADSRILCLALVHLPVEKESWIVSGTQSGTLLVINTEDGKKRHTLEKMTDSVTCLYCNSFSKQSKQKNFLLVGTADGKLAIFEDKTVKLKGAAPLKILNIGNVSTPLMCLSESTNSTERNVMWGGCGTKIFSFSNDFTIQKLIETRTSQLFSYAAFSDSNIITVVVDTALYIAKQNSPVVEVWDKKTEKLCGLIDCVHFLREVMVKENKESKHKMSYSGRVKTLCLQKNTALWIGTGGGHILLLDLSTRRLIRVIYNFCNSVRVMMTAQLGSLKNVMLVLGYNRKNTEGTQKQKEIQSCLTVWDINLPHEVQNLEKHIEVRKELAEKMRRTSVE

With CCC1C(C(=O)Nc2cc3cc(N4CCN(C5(C)CCOC5)CC4)c(Cl)cc3cn2)C1c1cnn(C)c1 (single isomer, unassigned) [Ex-9.10] as the compound, how does the IC50 read?
The IC50 was 0.0813 nM.

For CCC1C(C(=O)Nc2cc3cc(N4CCN(C5(C)CCOC5)CC4)c(Cl)cc3cn2)C1c1cnn(C)c1 (single isomer, unassigned) [Ex-9.11], which IC50 is on record?
Its IC50 is 1.15 nM.

For Cc1cc2cnc(NC(=O)C3C(C)C3c3cnn(C)c3)cc2cc1N1CCN(C2(C)CCOC2)CC1 (single isomer, unassigned) [Ex-9.12], which IC50 is on record?
The IC50 was 0.0813 nM.

For Cc1cc2cnc(NC(=O)C3C(C)C3c3cnn(C)c3)cc2cc1N1CCN(C2(C)CCOC2)CC1 (single isomer, unassigned) [Ex-9.13], which IC50 is on record?
Its IC50 is 11.5 nM.

With Cc1cc2cnc(NC(=O)C3C(C)C3c3cnn(C)c3)cc2cc1N1CCN(C2(C)CCOC2)CC1 (single isomer, unassigned) [Ex-9.14] as the compound, how does the IC50 read?
Its IC50 is 0.0813 nM.

Cc1cc2cnc(NC(=O)C3C(C)C3c3cnn(C)c3)cc2cc1N1CCN(C2(C)CCOC2)CC1 (single isomer, unassigned) [Ex-9.15] was tested. Which IC50 did it give?
The IC50 was 0.316 nM.

Which IC50 does the source give for Cc1cc2cnc(NC(=O)C3CC3c3ccccn3)cc2cc1N1CCN(C2(C)CCOC2)CC1 (single isomer, unassigned) [Ex-9.16] here?
The IC50 was 1.12 nM.

How did the IC50 turn out when Cc1cc2cnc(NC(=O)C3CC3c3ccccn3)cc2cc1N1CCN(C2(C)CCOC2)CC1 (single isomer, unassigned) [Ex-9.17] was run?
The IC50 was 1.29 nM.

With Cc1cc2cnc(NC(=O)C3CC3c3ccccn3)cc2cc1N1CCN(C2(C)CCOC2)CC1 (single isomer, unassigned) [Ex-9.18] as the compound, how does the IC50 read?
Its IC50 is 100 nM.

How did the IC50 turn out when CC1(N2CCN(c3cc4cc(NC(=O)C5CCC(F)(F)CO5)ncc4cc3Cl)CC2)COCC1O (single isomer, unassigned) [Ex-10.1, (2R or 2S)-N-(7-chloro-6-((3R, 4R or 3S, 4S)-4-(4-hydroxy-3-methyltetrahydrofuran-3-yl)piperazin-1-yl)isoquinolin-3-yl)-5,5-difluorotetrahydro-2H-pyran-2-carboxamide] was run?
The IC50 was 0.933 nM.

With CC1(N2CCN(c3cc4cc(NC(=O)C5CCC(F)(F)CO5)ncc4cc3Cl)CC2)COCC1O (single isomer, unassigned) [Ex-10.2, (2R or 2S)-N-(7-chloro-6-((3R, 4R or 3S, 4S)-4-(4-hydroxy-3-methyltetrahydrofuran-3-yl)piperazin-1-yl)isoquinolin-3-yl)-5,5-difluorotetrahydro-2H-pyran-2-carboxamide] as the compound, how does the IC50 read?
The IC50 was 0.676 nM.

How did the IC50 turn out when CC1(N2CCN(c3cc4cc(NC(=O)C5CCCOC5)ncc4cc3Cl)CC2)COCC1O (single isomer, unassigned) [Ex-10.3, (3R or 3S)-N-(7-chloro-6-(4-((3R, 4R or 3S, 4S)-4-hydroxy-3-methyltetrahydrofuran-3-yl)piperazin-1-yl)isoquinolin-3-yl)tetrahydro-2H-pyran-3-carboxamide] was run?
The IC50 was 1.58 nM.

How did the IC50 turn out when CC1(N2CCN(c3cc4cc(NC(=O)C5CCCOC5)ncc4cc3Cl)CC2)COCC1O (single isomer, unassigned) [Ex-10.4, (3R or 3S)-N-(7-chloro-6-(4-((3R, 4R or 3S, 4S)-4-hydroxy-3-methyltetrahydrofuran-3-yl)piperazin-1-yl)isoquinolin-3-yl)tetrahydro-2H-pyran-3-carboxamide] was run?
Its IC50 is 1.38 nM.

With CC(C)(O)C1CC1C(=O)Nc1cc2cc(N3CCN(C4(C)COCC4O)CC3)c(Cl)cc2cn1 (single isomer, unassigned) [Ex-10.5] as the compound, how does the IC50 read?
Its IC50 is 4.79 nM.

With CC(C)(O)C1CC1C(=O)Nc1cc2cc(N3CCN(C4(C)COCC4O)CC3)c(Cl)cc2cn1 (single isomer, unassigned) [Ex-10.6] as the compound, how does the IC50 read?
Its IC50 is 0.141 nM.

CCOC1CC1C(=O)Nc1cc2cc(N3CCN(C4(C)COCC4O)CC3)c(Cl)cc2cn1 (single isomer, unassigned) [Ex-10.11] was tested. Which IC50 did it give?
The IC50 was 0.851 nM.

For CCOC1CC1C(=O)Nc1cc2cc(N3CCN(C4(C)COCC4O)CC3)c(Cl)cc2cn1 (single isomer, unassigned) [Ex-10.12], which IC50 is on record?
Its IC50 is 0.0832 nM.

With CC1(N2CCN(c3cc4cc(NC(=O)C5CC5c5cccs5)ncc4cc3Cl)CC2)COCC1O (single isomer, unassigned) [Ex-10.13, (1R,2R or 1R,2S)-N-[7-chloro-6-[4-((3R,4R or 3S,4S)-4-hydroxy-3-methyl-tetrahydrofuran-3-yl)piperazin-1-yl]-3-isoquinolyl]-2-(2-thienyl)cyclopropanecarboxamide] as the compound, how does the IC50 read?
Its IC50 is 0.0813 nM.

With CC1(N2CCN(c3cc4cc(NC(=O)C5CC5c5cccs5)ncc4cc3Cl)CC2)COCC1O (single isomer, unassigned) [Ex-10.14, (1R,2R or 1R,2S)-N-[7-chloro-6-[4-((3R,4R or 3S,4S)-4-hydroxy-3-methyl-tetrahydrofuran-3-yl)piperazin-1-yl]-3-isoquinolyl]-2-(2-thienyl)cyclopropanecarboxamide] as the compound, how does the IC50 read?
The IC50 was 4.27 nM.

How did the IC50 turn out when CC1C(C(=O)Nc2cc3cc(N4CCN(C5(C)COCC5F)CC4)c(Cl)cc3cn2)C1c1ccn(C)n1 (single isomer, unassigned) [Ex-10.15] was run?
Its IC50 is 1.17 nM.

With CC1C(C(=O)Nc2cc3cc(N4CCN(C5(C)COCC5F)CC4)c(Cl)cc3cn2)C1c1ccn(C)n1 (single isomer, unassigned) [Ex-10.16] as the compound, how does the IC50 read?
The IC50 was 7.94 nM.

Which IC50 does the source give for Cn1ccc(C2CC2C(=O)Nc2cc3cc(N4CCN(C5(C)COCC5F)CC4)c(Cl)cc3cn2)n1 (single isomer, unassigned) [Ex-10.17, (1R,2R or 1S,2S)-N-[7-chloro-6-[4-((3R,4R or 3S,4S)-4-fluoro-3-methyl-tetrahydrofuran-3-yl)piperazin-1-yl]-3-isoquinolyl]-2-(1-methylpyrazol-3-yl)cyclopropanecarboxamide] here?
Its IC50 is 2.75 nM.

For Cn1ccc(C2CC2C(=O)Nc2cc3cc(N4CCN(C5(C)COCC5F)CC4)c(Cl)cc3cn2)n1 (single isomer, unassigned) [Ex-10.18, (1R,2R or 1S,2S)-N-[7-chloro-6-[4-((3R,4R or 3S,4S)-4-fluoro-3-methyl-tetrahydrofuran-3-yl)piperazin-1-yl]-3-isoquinolyl]-2-(1-methylpyrazol-3-yl)cyclopropanecarboxamide], which IC50 is on record?
The IC50 was 8.71 nM.

CC(C)Cn1nccc1C1CC1C(=O)Nc1cc2cc(N3CCN(C4(C)COCC4O)CC3)c(Cl)cc2cn1 (single isomer, unassigned) [Ex-10.19, (1R,2R or 1S,2S)-N-[7-chloro-6-[4-((3R,4R or 3S,4S)-4-hydroxy-3-methyl-tetrahydrofuran-3-yl)piperazin-1-yl]-3-isoquinolyl]-2-(2-isobutylpyrazol-3-yl)cyclopropanecarboxamide] was tested. Which IC50 did it give?
Its IC50 is 42.7 nM.

CC(C)Cn1nccc1C1CC1C(=O)Nc1cc2cc(N3CCN(C4(C)COCC4O)CC3)c(Cl)cc2cn1 (single isomer, unassigned) [Ex-10.20, (1R,2R or 1S,2S)-N-[7-chloro-6-[4-((3R,4R or 3S,4S)-4-hydroxy-3-methyl-tetrahydrofuran-3-yl)piperazin-1-yl]-3-isoquinolyl]-2-(2-isobutylpyrazol-3-yl)cyclopropanecarboxamide] was tested. Which IC50 did it give?
The IC50 was 2.24 nM.

CC(C)n1nccc1C1CC1C(=O)Nc1cc2cc(N3CCN(C4(C)COCC4O)CC3)c(Cl)cc2cn1 (single isomer, unassigned) [Ex-10.21, (1R,2R or 1S,2S)-N-[7-chloro-6-[4-((3R,4R or 3S,4S)-4-hydroxy-3-methyl-tetrahydrofuran-3-yl)piperazin-1-yl]-3-isoquinolyl]-2-(2-isopropylpyrazol-3-yl)cyclopropanecarboxamide] was tested. Which IC50 did it give?
Its IC50 is 44.7 nM.

For CC(C)n1nccc1C1CC1C(=O)Nc1cc2cc(N3CCN(C4(C)COCC4O)CC3)c(Cl)cc2cn1 (single isomer, unassigned) [Ex-10.22, (1R,2R or 1S,2S)-N-[7-chloro-6-[4-((3R,4R or 3S,4S)-4-hydroxy-3-methyl-tetrahydrofuran-3-yl)piperazin-1-yl]-3-isoquinolyl]-2-(2-isopropylpyrazol-3-yl)cyclopropanecarboxamide], which IC50 is on record?
Its IC50 is 2.69 nM.

For CCOC1CC2(C1)CC2C(=O)Nc1cc2cc(N3CCN(C4(C)COCC4F)CC3)c(Cl)cc2cn1 (single isomer, unassigned) [Ex-10.23, (1R,2R or 1S,2S)-N-[7-chloro-6-[4-((3R,4R or 3S,4S)-4-fluoro-3-methyl-tetrahydrofuran-3-yl)piperazin-1-yl]-3-isoquinolyl]-5-ethoxy-spiro[2.3]hexane-2-carboxamide], which IC50 is on record?
Its IC50 is 0.724 nM.

How did the IC50 turn out when CCOC1CC2(C1)CC2C(=O)Nc1cc2cc(N3CCN(C4(C)COCC4F)CC3)c(Cl)cc2cn1 (single isomer, unassigned) [Ex-10.24, (1R,2R or 1S,2S)-N-[7-chloro-6-[4-((3R,4R or 3S,4S)-4-fluoro-3-methyl-tetrahydrofuran-3-yl)piperazin-1-yl]-3-isoquinolyl]-5-ethoxy-spiro[2.3]hexane-2-carboxamide] was run?
The IC50 was 0.0813 nM.

With Cn1ncc(C2CC2C(=O)Nc2cc3cc(N4CCN(C5(C)CCOC5)CC4)c(Cl)cc3cn2)c1C(F)(F)F (single isomer, unassigned) [Ex-10.25, (1R,2R or 1S,2S)-N-[7-chloro-6-[4-((R or S)-3-methyltetrahydrofuran-3-yl)piperazin-4-ium-1-yl]-3-isoquinolyl]-2-[1-methyl-5-(trifluoromethyl)pyrazol-4-yl]cyclopropanecarboxamide] as the compound, how does the IC50 read?
Its IC50 is 3.72 nM.

For Cn1ncc(C2CC2C(=O)Nc2cc3cc(N4CCN(C5(C)CCOC5)CC4)c(Cl)cc3cn2)c1C(F)(F)F (single isomer, unassigned) [Ex-10.26, (1R,2R or 1S,2S)-N-[7-chloro-6-[4-((R or S)-3-methyltetrahydrofuran-3-yl)piperazin-4-ium-1-yl]-3-isoquinolyl]-2-[1-methyl-5-(trifluoromethyl)pyrazol-4-yl]cyclopropanecarboxamide], which IC50 is on record?
The IC50 was 525 nM.
